# Patent US12390470B2, “1-methylxanthine-based bioactive composition and method of use thereof” (Ingenious Ingredients, LP, priority 2021, dated 2025)
# Tests used:
# [1] = Brain weight in young and aged rats; format: in vivo
# Description: (§1) Twenty-four young (6-8 Week) and twenty-four old (14-16 Months) Swiss Albino Wistar rats were housed in an animal room at a constant temperature (22±3° C.) and humidity (30%-70%) under a 12:12 h light-dark cycle with standard laboratory diet (Purina 5L79, Rat and Mouse 18% protein; PMI Nutrition International, Brentwood, MO, USA). Distilled water was provided ad libitum. All animal experiments were reviewed and approved by the Institutional Animal Ethical Committee (IAEC) of Radiant Research Services Pvt. Ltd (Bangalore, India). All research was conducted in accordance with the guidelines of the committee for the purpose of control and supervision of experiments on animals.
# (§2) After one week of acclimation, the animals were randomly divided by body weight and age into six groups (n=8 per group in each test) for oral treatment once a day, at approximately same time each day (±1 hour), for 10 consecutive days: (1) vehicle control or (2) 1-methylxanthine or (3) 1-methylxanthine plus paraxanthine. The dose administered to the rat was calculated using US Food and Drug Administration for human equivalence doses (HED), assuming a human weight of 60 kg. […] Food intake was monitored daily while water intake was ad libitum. […] Body weight was recorded weekly. […]
# Swiss Albino Wistar rats = assay: Morris water maze test in young and old rats; format: in vivo; conditions: HED 100 mg 1-MX (+25 mg PX)
# Description: as §1, §2
# participants = assay: Systolic blood pressure, crossover vs caffeine; format: in vivo, human
# From the text: All supplements were orally ingested with 8 fluid ounces of cold tap water.
# dopamine = assay: Dopamine level in young and old rats; format: in vivo; conditions: old rats
# Description: as §1, §2
smiles,measurement,setting,value
"Cn1c(=O)[nH]c2nc[nH]c2c1=O [1-methylxanthine, 1-Methyl-3H-purine-2,6-dione]",Brain weight,[1]; aged animals,2 ± 0.074 g
same,Brain weight,[1]; young animals,1.73 ± 0.027 g
same,"Escape latency, Morris water maze",Swiss Albino Wistar rats; old rats,41.71 ± 1.81 s
same,"Escape latency, Morris water maze",Swiss Albino Wistar rats; young rats,32.18 ± 1.10 s
same,systolic blood pressure change from baseline,participants; 200 mg oral,did not increase
same,systolic blood pressure reduced in comparison to CA,participants; 200 mg oral,6.1%
same,Systolic Blood Pressure MEAN (30-180),participants; Average,117.2 mm Hg
same,Systolic Blood Pressure MEAN (30-180),participants; Person one,123.6 mm Hg
same,Systolic Blood Pressure Mean Δ from 0,participants; Person one,−1.6 mm Hg
same,Systolic Blood Pressure Δ vs. CA,participants; Person one,−6.4 mm Hg
same,Systolic Blood Pressure,"participants; Person one, 30 min",116 mm Hg
same,Systolic Blood Pressure,"participants; Person one, 60 min",136 mm Hg
same,Systolic Blood Pressure,"participants; Person one, 90 min",108 mm Hg
same,Systolic Blood Pressure,"participants; Person one, 120 min",116 mm Hg
same,Systolic Blood Pressure,"participants; Person one, 180 min",142 mm Hg
same,Systolic Blood Pressure,"participants; Person one, time 0, 200 mg oral",125 mm Hg
same,Systolic Blood Pressure MEAN (30-180),participants; Person two,110.8 mm Hg
same,Systolic Blood Pressure Mean Δ from 0,participants; Person two,−2.2 mm Hg
same,Systolic Blood Pressure Δ vs. CA,participants; Person two,−9.6 mm Hg
same,Systolic Blood Pressure,"participants; Person two, 30 min",125 mm Hg
same,Systolic Blood Pressure,"participants; Person two, 60 min",110 mm Hg
same,Systolic Blood Pressure,"participants; Person two, 90 min",113 mm Hg
same,Systolic Blood Pressure,"participants; Person two, 120 min",114 mm Hg
same,Systolic Blood Pressure,"participants; Person two, 180 min",92 mm Hg
same,Systolic Blood Pressure,"participants; Person two, time 0, 200 mg oral",113 mm Hg
same,dopamine level,dopamine,474.42 ± 13.49 ng/L
